Results on 23 molecules are retold here after patent US20220338471A1, “HONEY BEE-SAFE ACARICIDAL COMPOUNDS” (Kansas State University Research Foundation, priority 2019, published 2022).

“And” between values parts separate entries of the source, which are not always exact repeats. Equal values may be shown once. Read-outs that look alike come from different tables or passages of the source. Square brackets hold non-standard residues; d marks the D form. Ends that are not written are not given here. Peptide text beside a SMILES is read from it. Oic = O=C(O)[C@@H]1C[C@@H]2CCCC[C@@H]2N1; Phe(4-Cl) = N[C@@H](Cc1ccc(Cl)cc1)C(=O)O; Phe(4-F) = N[C@@H](Cc1ccc(F)cc1)C(=O)O; Hyp = O=C(O)[C@@H]1C[C@@H](O)CN1; β3hF = N[C@H](CC(=O)O)Cc1ccccc1; β3hL = CC(C)C[C@H](N)CC(=O)O; β3hP = O=C(O)C[C@@H]1CCCN1; Aib = CC(C)(N)C(=O)O

As usually defined, the EC50 is the concentration needed to bring the measured effect to its halfway point.

The experiment deals with T1, varroa mite proctolin receptor (VdProctR) (Varroa destructor, UniProt A0A7T1TE40).
T1 sequence (A0A7T1TE40 1-530): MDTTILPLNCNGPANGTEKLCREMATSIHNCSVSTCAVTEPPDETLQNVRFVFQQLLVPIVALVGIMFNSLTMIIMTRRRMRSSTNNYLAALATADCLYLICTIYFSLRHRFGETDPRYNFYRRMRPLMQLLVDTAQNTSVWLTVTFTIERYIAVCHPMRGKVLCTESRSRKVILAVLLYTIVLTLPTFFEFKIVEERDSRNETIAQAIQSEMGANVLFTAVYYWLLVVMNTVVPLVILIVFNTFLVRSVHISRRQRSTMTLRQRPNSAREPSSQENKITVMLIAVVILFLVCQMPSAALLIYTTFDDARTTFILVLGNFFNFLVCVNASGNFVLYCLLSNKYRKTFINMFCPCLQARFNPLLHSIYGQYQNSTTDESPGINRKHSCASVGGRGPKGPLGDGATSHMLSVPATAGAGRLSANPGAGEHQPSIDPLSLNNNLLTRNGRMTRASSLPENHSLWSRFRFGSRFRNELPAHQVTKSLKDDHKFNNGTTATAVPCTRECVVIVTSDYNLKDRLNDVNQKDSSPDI
The experiment can be described thus: Receptor activity assay: luminescence in cells transiently transfected with varroa mite proctolin receptor. The class given is cell-based. The following applies: for EC50: varroa mite proctolin receptor; for Activity at high concentrations compared with proctolin: at 1 μM and 10 μM; for Factor by which potency exceeds that of the corresponding analog with only a single replacement at Y2: 2338 vs 2333, 2337 vs 2329. The method, then:
Approximately thirty hours after transfection, the cells were collected and preincubated with coelenterazine h for the functional assay. The ligands in serial dilutions were loaded into 96-well opaque plates. Cells treated with coelenterazine h were injected into each well on an Orion microplate luminometer (Berthold) luminescent plate reader. The luminescence was measured for 20 seconds immediately after the cell injections. Data analyses were performed to determine the accumulated luminescence value for 20 seconds after extraction of blank-well luminescence. A dose-response curve was generated and the EC50 (50% effective concentration) was calculated in Origin 7 (OriginLab).

Where [1] appears, read: EC50 (nM), second set of peptidomimetics.
[2] abbreviates: second set, EC50 relative to proctolin (14.19 nM).
The mark [3] stands for this setting: first set of experiments, EC50 relative to proctolin (0.22 nM).
Setting [4] is: first set of experiments, read-out: EC50.
[5] abbreviates: EC50 (nM), first set of experiments.

As to `CC(=O)N[C@@H](CCCNC(=N)N)C(=O)N[C@@H](Cc1ccc(F)cc1)C(=O)N[C@@H](CC(C)C)C(=O)N1C[C@H](O)C[C@H]1C(=O)N[C@H](C(=O)O)[C@@H](C)O` [Ac-2441, Ac-R[Phe(4-F)]L[HyP]T] (Ac-R[Phe(4-F)]L[Hyp]T-OH), under setting [1], a half-maximal response (EC50) required 471 nM. This molecule also gave a Fold change under setting [2] of 33.20.

On to `CC(=O)N[C@@H](CCCNC(=N)N)C(=O)N[C@@H](Cc1ccc(Cl)cc1)C(=O)N[C@@H](CC(C)C)C(=O)N1C[C@H](O)C[C@H]1C(=O)N[C@H](C(=O)O)[C@@H](C)O` [Ac-2443, Ac-R[Phe(4-Cl)]L[HyP]T] (Ac-R[Phe(4-Cl)]L[Hyp]T-OH), for which the EC50 under setting [1] came to 108 nM. For the same molecule, the Fold change under setting [2] amounted to 7.64.

`CC(C)C[C@H](NC(=O)[C@H](Cc1ccc(O)cc1)NC(=O)[C@@H](N)CCCNC(=N)N)C(=O)N1CCC[C@H]1C(=O)N[C@@H](C(=O)O)[C@H](C)O` [Analog 2326, RYLP[dT]] (H-RYLP[dT]-OH; N-terminus assumed) registered a Fold change under setting [3] of 13600.00. Moreover, the EC50 under setting [4] worked out at 2990 nM. Also, the “Agonist activity / potency on the Varroa mite proctolin receptor, in words” value (in words) is “inactive agonist”.

Consider `CC(C)C[C@H](NC(=O)[C@H](Cc1ccc(O)cc1)NC(=O)[C@@H](N)CCCNC(=N)N)C(=O)N1CCC[C@@H]1C(=O)N[C@H](C(=O)O)[C@@H](C)O` [Analog 2327, RYL[dP]T] (H-RYL[dP]T-OH), for which the Fold change under setting [3] is 2496.82. Besides, the EC50 under setting [4] was found to be 549 nM.

`CC(C)C[C@@H](NC(=O)[C@H](Cc1ccc(O)cc1)NC(=O)[C@@H](N)CCCNC(=N)N)C(=O)N1CCC[C@H]1C(=O)N[C@H](C(=O)O)[C@@H](C)O` [Analog 2328, RY[dL]PT] (H-RY[dL]PT-OH) returned a Fold change under setting [3] of 413.36. Also, the EC50 under setting [4] worked out at 90.9 nM.

Turning to `CC(C)C[C@H](NC(=O)[C@@H](Cc1ccc(O)cc1)NC(=O)[C@@H](N)CCCNC(=N)N)C(=O)N1CCC[C@H]1C(=O)N[C@H](C(=O)O)[C@@H](C)O` [Analog 2329, R[dY]LPT] (H-R[dY]LPT-OH), the Fold change under setting [3] is recorded as 672.27. Further, the EC50 under setting [4] came to 148 nM.

Take `CC(C)C[C@H](NC(=O)[C@H](Cc1ccc(O)cc1)NC(=O)[C@H](N)CCCNC(=N)N)C(=O)N1CCC[C@H]1C(=O)N[C@H](C(=O)O)[C@@H](C)O` [Analog 2330, [dR]YLPT] (H-[dR]YLPT-OH; N-terminus assumed): the “Activity at high concentrations compared with proctolin” value is recorded as “higher than that of proctolin”. The same molecule registered a Fold change under setting [3] of 25.55. Under setting [4], the EC50 was 5.6 nM and 5.62 nM.

Consider `CC(C)C[C@H](NC(=O)[C@H](Cc1ccc(O)cc1)NC(=O)[C@@H](N)CCCNC(=N)N)C(=O)N1CCC[C@H]1CC(=O)N[C@H](C(=O)O)[C@@H](C)O` [Analog 2331, RYL[β3P]T] (H-RYL[β3hP]T-OH; N-terminus assumed), for which the “Activity at high concentrations compared with proctolin” value is recorded as “higher than that of proctolin”. Moreover, under setting [3], the Fold change turned out to be 20.00. Also, the EC50 under setting [4] is 4.4 nM.

On to `CC(C)C[C@@H](CC(=O)N1CCC[C@H]1C(=O)N[C@H](C(=O)O)[C@@H](C)O)NC(=O)[C@H](Cc1ccc(O)cc1)NC(=O)[C@@H](N)CCCNC(=N)N` [Analog 2332, RY[β3L]PT] (H-RY[β3hL]PT-OH), for which the Fold change under setting [3] is listed as 927.27. For the same molecule, the EC50 under setting [4] came to 204 nM.

For `CC(C)C[C@H](NC(=O)C[C@H](Cc1ccccc1)NC(=O)[C@@H](N)CCCNC(=N)N)C(=O)N1CCC[C@H]1C(=O)N[C@H](C(=O)O)[C@@H](C)O` [Analog 2333, R[β3F]LPT] (H-R[β3hF]LPT-OH), the Fold change under setting [3] was found to be 991.82. The EC50 under setting [4] was 218 nM.

For `CC(C)C[C@H](NC(=O)[C@H](Cc1ccc(O)cc1)NC(=O)[C@@H](N)CCCNC(=N)N)C(=O)NC(C)(C)C(=O)N[C@H](C(=O)O)[C@@H](C)O` [Analog 2335, RYL[Aib]T] (H-RYL[Aib]T-OH), the Fold change under setting [3] is reported as 10.09. Also, the EC50 under setting [4] was 2.2 nM and 2.22 nM.

On to `CC(C)C[C@H](NC(=O)[C@@H](Cc1ccc(O)cc1)NC(=O)[C@@H](N)CCCNC(=N)N)C(=O)N1C[C@H](O)C[C@H]1C(=O)N[C@H](C(=O)O)[C@@H](C)O` [Analog 2337, R[dY]L[HyP]T] (H-R[dY]L[Hyp]T-OH; N-terminus assumed), for which the “Factor by which potency exceeds that of the corresponding analog with only a single replacement at Y2” value is recorded as 4. Moreover, the EC50 under setting [5] was 36 nM and 35.9 nM. Also, under setting [3], the Fold change is 163.00. In addition, the “Efficacy (maximal response)” value (in words) was “full efficacy”.

As to `CC(C)C[C@H](NC(=O)C[C@H](Cc1ccccc1)NC(=O)[C@@H](N)CCCNC(=N)N)C(=O)N1C[C@H](O)C[C@H]1C(=O)N[C@H](C(=O)O)[C@@H](C)O` [Analog 2338, R[β3F]L[HyP]T] (H-R[β3hF]L[Hyp]T-OH), the “Factor by which potency exceeds that of the corresponding analog with only a single replacement at Y2” value was 8. Further, the EC50 under setting [5] is 26 nM and 26.3 nM. The Fold change under setting [3] stood at 119.59. The “Efficacy (maximal response)” value (in words) was “full efficacy”.

Under setting [5], `CC(C)C[C@H](NC(=O)[C@@H](Cc1ccc(O)cc1)NC(=O)[C@@H](N)CCCNC(=N)N)C(=O)N1[C@H](C(=O)N[C@H](C(=O)O)[C@@H](C)O)C[C@@H]2CCCC[C@@H]21` [Analog 2340, R[dY]L[Oic]T] (H-R[dY]L[Oic]T-OH; N-terminus assumed) showed a half-maximal effective concentration (EC50) of 278 nM. The Fold change under setting [3] came to 1262.27. In addition, where the note is “in words”, the “Potency compared with 2337 and 2338” value is “less potent than 2337 and 2338 by approximately an order of magnitude”.

Under setting [1], `CC(C)C[C@H](NC(=O)[C@H](Cc1ccc(F)cc1)NC(=O)[C@@H](N)CCCNC(=N)N)C(=O)N1CCC[C@H]1C(=O)N[C@H](C(=O)O)[C@@H](C)O` [Analog 2438, R[Phe(4-F)]LPT] (H-R[Phe(4-F)]LPT-OH) yielded an EC50 of 7.55 nM. This molecule also registered a Fold change under setting [2] of 0.53.

Consider `CC(C)C[C@H](NC(=O)[C@H](Cc1ccc(Cl)cc1)NC(=O)[C@@H](N)CCCNC(=N)N)C(=O)N1CCC[C@H]1C(=O)N[C@H](C(=O)O)[C@@H](C)O` [Analog 2440, R[Phe(4-Cl)]LPT] (H-R[Phe(4-Cl)]LPT-OH), for which a half-maximal effect under setting [1] (EC50) was put at 7.03 nM. Moreover, the Fold change under setting [2] amounted to 0.50.

Under setting [1], `CC(C)C[C@H](NC(=O)[C@H](Cc1ccc(F)cc1)NC(=O)[C@@H](N)CCCNC(=N)N)C(=O)N1C[C@H](O)C[C@H]1C(=O)N[C@H](C(=O)O)[C@@H](C)O` [Analog 2441, R[Phe(4-F)]L[HyP]T] (H-R[Phe(4-F)]L[Hyp]T-OH; N-terminus and C-terminus assumed) returned an EC50 of 9.93 nM. Under “second set, Y2 phenylalanine variants”, the “Activity compared with proctolin, in words” value is on record as “higher activity than proctolin”. Moreover, the Fold change under setting [2] was 0.70.

The molecule GRYLPT [Analog G1, GRYLPT] returned an EC50 under setting [5] of 30.9 nM. Further, the Fold change under setting [3] amounted to 140.36.

The molecule RGYLPT [Analog G2, RGYLPT] displayed an EC50 under setting [5] of 15900 nM. The molecule further showed a Fold change under setting [3] of 72095.45.

As to RYGLPT [Analog G3, RYGLPT], the EC50 under setting [5] amounted to 31400 nM. The molecule further gave a Fold change under setting [3] of 142868.18.

RYLGPT [Analog G4, RYLGPT]: under setting [5], the EC50 is 1090 nM. Under setting [3], this molecule yielded a Fold change of 4954.55.

RYLPGT [Analog G5, RYLPGT]: a half-maximal response under setting [5] (EC50) required 1160 nM. Besides, the Fold change under setting [3] was determined as 5259.09.

As to RYLPTG [Analog G6, RYLPTG], the “Activity at high concentrations compared with proctolin” value is “higher than that of proctolin”. The same molecule gave an EC50 under setting [5] of 478 nM. This molecule had a Fold change under setting [3] of 2175.00.
